target: T1, PIP4K2C (Homo sapiens, UniProt Q8TBX8); assay: HiBiT PIP4K2C degradation assay in MOLT-4 cells (endogenous PIP4K2C C-terminally tagged with HiBiT); assay type: cell-based; design: untagged in primary human PBMCs and monocyte-derived dendritic cells; conditions: 24 hours incubation, MOLT-4, top concentration 10 micromolar; read-out: HiBIT-degradation MOLT4 PIP4k2C 24 hours DC50
T1 sequence (Q8TBX8 1-421): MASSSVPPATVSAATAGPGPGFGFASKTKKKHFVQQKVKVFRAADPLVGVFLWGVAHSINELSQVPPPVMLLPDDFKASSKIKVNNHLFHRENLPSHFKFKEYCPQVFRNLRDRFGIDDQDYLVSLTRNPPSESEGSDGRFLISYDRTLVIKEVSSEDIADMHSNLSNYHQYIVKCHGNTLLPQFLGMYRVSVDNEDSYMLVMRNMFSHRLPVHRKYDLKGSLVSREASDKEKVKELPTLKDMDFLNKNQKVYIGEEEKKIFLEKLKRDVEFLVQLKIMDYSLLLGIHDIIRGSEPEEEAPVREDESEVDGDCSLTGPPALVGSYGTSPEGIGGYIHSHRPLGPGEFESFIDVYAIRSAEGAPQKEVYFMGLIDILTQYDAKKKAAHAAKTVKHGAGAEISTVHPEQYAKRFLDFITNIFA
Method in brief: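 MOLT-4 knock-in line, HiBiT on PIP4K2C C-terminus; 22,500 cells/well; 10-pt 3-fold titration from 10 micromolar, n=2; 24 h or 6 h, 37 C, 5% CO2; Nano-Glo HiBiT lytic luminescence; DC50 via Hill equation.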

Row | Compound | DC50 [nM]
1 | O=C1CCC(N2Cc3cc(OC4CCN(C5CCN(CCC(=O)N6CCC(Nc7ncc(Cl)c(-c8cccc(-c9ccccc9)c8)n7)CC6)CC5)CC4)ccc3C2=O)C(=O)N1 (centres unmarked) [Compound 90, 3-(5-((1′-(3-(4-((4-([1,1′-biphenyl]-3-yl)-5-chloropyrimidin-2-yl)amino)piperidin-1-yl)-3-oxopropyl)-[1,4′-bipiperidin]-4-yl)oxy)-1-oxoisoindolin-2-yl)piperidine-2,6-dione] | < 500
2 | Cn1c(=O)n(C2CCC(=O)NC2=O)c2ccc(C3CCN(C4CCCN(CC(=O)N5CCC(Nc6ncc(Cl)c(-c7cccc(-c8ccc(F)cc8)c7)n6)CC5)C4)CC3)cc21 (centres unmarked) [Compound 275, 3-(5-(1′-(2-(4-((5-chloro-4-(4′-fluoro-[1,1′-biphenyl]-3-yl)pyrimidin-2-yl)amino)piperidin-1-yl)-2-oxoethyl)-[1,3′-bipiperidin]-4-yl)-3-methyl-2-oxo-2,3-dihydro-1H-benzo[d]imidazol-1-yl)piperidine-2,6-dione] | < 500
3 | Cn1c(=O)n(C2CCC(=O)NC2=O)c2ccc(C3CCN(CC4CCN(CC(=O)N[C@H]5CC[C@H](Nc6ncc(Cl)c(-c7cccc(-c8ccc(F)cc8)c7)n6)CC5)CC4)CC3)cc21 (stereo partly drawn) [Compound 276, trans-N-(4-((5-chloro-4-(4′-fluoro-[1,1′-biphenyl]-3-yl)pyrimidin-2-yl)amino)cyclohexyl)-2-(4-((4-(1-(2,6-dioxopiperidin-3-yl)-3-methyl-2-oxo-2,3-dihydro-1H-benzo[d]imidazol-5-yl)piperidin-1-yl)methyl)piperidin-1-yl)acetamide] | < 500
4 | Cn1nc(C2CCC(=O)NC2=O)c2ccc(C3CCN(CC4CCN(CC(=O)N5CCC(Nc6ncc(Cl)c(-c7cccc(-c8ccc(F)cc8)c7)n6)CC5)CC4)CC3)cc21 (centres unmarked) [Compound 277, 3-(6-(1-((1-(2-(4-((5-chloro-4-(4′-fluoro-[1,1′-biphenyl]-3-yl)pyrimidin-2-yl)amino)piperidin-1-yl)-2-oxoethyl)piperidin-4-yl)methyl)piperidin-4-yl)-1-methyl-1H-indazol-3-yl)piperidine-2,6-dione] | 500 to 1000
5 | Cn1nc(C2CCC(=O)NC2=O)c2ccc(C3CCN(C(=O)C4(O)CCN(CC(=O)N5CCC(Nc6ncc(Cl)c(-c7cccc(-c8ccc(F)cc8)c7)n6)CC5)CC4)CC3)cc21 (centres unmarked) [Compound 278, 3-(6-(1-(1-(2-(4-((5-chloro-4-(4′-fluoro-[1,1′-biphenyl]-3-yl)pyrimidin-2-yl)amino)piperidin-1-yl)-2-oxoethyl)-4-hydroxypiperidine-4-carbonyl)piperidin-4-yl)-1-methyl-1H-indazol-3-yl)piperidine-2,6-dione] | < 500
6 | Cn1c(=O)n(C2CCC(=O)NC2=O)c2ccc(C3CCN(CCC4CCN(C(=O)[C@@H]5CCC[C@H](Nc6ncc(Cl)c(-c7cccc(-c8ccccc8)c7)n6)C5)CC4)CC3)cc21 (stereo partly drawn) [Compound 280, 3-(5-(1-(2-(1-((1R,3S)-3-((4-([1,1′-biphenyl]-3-yl)-5-chloropyrimidin-2-yl)amino)cyclohexane-1-carbonyl)piperidin-4-yl)ethyl)piperidin-4-yl)-3-methyl-2-oxo-2,3-dihydro-1H-benzo[d]imidazol-1-yl)piperidine-2,6-dione] | < 500
7 | Cn1c(=O)n(C2CCC(=O)NC2=O)c2ccc(C3CCN(CCC4CCN(C(=O)[C@H]5CCC[C@@H](Nc6ncc(Cl)c(-c7cccc(-c8ccccc8)c7)n6)C5)CC4)CC3)cc21 (stereo partly drawn) [Compound 281, 3-(5-(1-(2-(1-((1S,3R)-3-((4-([1,1′-biphenyl]-3-yl)-5-chloropyrimidin-2-yl)amino)cyclohexane-1-carbonyl)piperidin-4-yl)ethyl)piperidin-4-yl)-3-methyl-2-oxo-2,3-dihydro-1H-benzo[d]imidazol-1-yl)piperidine-2,6-dione] | < 500
8 | O=C1CCC(c2ccc(N3CCC(O)(CC(=O)N4CCC(C(=O)N5CCC(Nc6ncc(Cl)c(-c7cccc(-c8ccc(F)cc8)c7)n6)CC5)CC4)CC3)c(F)c2)C(=O)N1 (centres unmarked) [Compound 282, 3-(4-(4-(2-(4-(4-((5-chloro-4-(4′-fluoro-[1,1′-biphenyl]-3-yl)pyrimidin-2-yl)amino)piperidine-1-carbonyl)piperidin-1-yl)-2-oxoethyl)-4-hydroxypiperidin-1-yl)-3-fluorophenyl)piperidine-2,6-dione] | < 500

Next, values leading:

Row | DC50 [nM] | Compound
9 | < 500 | O=C1CCC(Nc2ccc(N3CCC(N4CCC(C(=O)N[C@H]5CC[C@H](Nc6ncc(Cl)c(-c7cccc(-c8ccc(F)cc8)c7)n6)CC5)CC4)CC3)cc2)C(=O)N1 (stereo partly drawn) [Compound 285, trans-N-(4-((5-chloro-4-(4′-fluoro-[1,1′-biphenyl]-3-yl)pyrimidin-2-yl)amino)cyclohexyl)-1′-(4-((2,6-dioxopiperidin-3-yl)amino)phenyl)-[1,4′-bipiperidine]-4-carboxamide]
10 | < 500 | Cn1c(=O)n(C2CCC(=O)NC2=O)c2ccc(C3CCN(CC4CCN(CC(=O)N5CCC(Nc6ncc(F)c(-c7cccc(-c8ccccc8)c7)n6)CC5)CC4)CC3)cc21 (centres unmarked) [Compound 286, 3-(5-(1-((1-(2-(4-((4-([1,1′-biphenyl]-3-yl)-5-fluoropyrimidin-2-yl)amino)piperidin-1-yl)-2-oxoethyl)piperidin-4-yl)methyl)piperidin-4-yl)-3-methyl-2-oxo-2,3-dihydro-1H-benzo[d]imidazol-1-yl)piperidine-2,6-dione]
11 | < 500 | Cn1c(=O)n(C2CCC(=O)NC2=O)c2ccc(C3CCN(CC4CCN(CC(=O)N5CCC(Nc6ncc(Cl)c(-c7cccc(-c8ccc(F)cc8)c7)n6)CC5)CC4)CC3)cc21 (centres unmarked) [Compound 287, 3-(5-(1-((1-(2-(4-((5-chloro-4-(4′-fluoro-[1,1′-biphenyl]-3-yl)pyrimidin-2-yl)amino)piperidin-1-yl)-2-oxoethyl)piperidin-4-yl)methyl)piperidin-4-yl)-3-methyl-2-oxo-2,3-dihydro-1H-benzo[d]imidazol-1-yl)piperidine-2,6-dione]
12 | < 500 | Cn1c(=O)n(C2CCC(=O)NC2=O)c2ccc(C3CCN(CC4CCN(CC(=O)N5CCC(Nc6ncc(F)c(-c7cccc(-c8ccc(F)cc8)c7)n6)CC5)CC4)CC3)cc21 (centres unmarked) [Compound 288, 3-(5-(1-((1-(2-(4-((5-fluoro-4-(4′-fluoro-[1,1′-biphenyl]-3-yl)pyrimidin-2-yl)amino)piperidin-1-yl)-2-oxoethyl)piperidin-4-yl)methyl)piperidin-4-yl)-3-methyl-2-oxo-2,3-dihydro-1H-benzo[d]imidazol-1-yl)piperidine-2,6-dione]
13 | < 500 | Cn1nc(C2CCC(=O)NC2=O)c2ccc(C3CCN(C(=O)CN4CCC(O)(C(=O)N5CCC(Nc6ncc(Cl)c(-c7cccc(-c8ccc(F)cc8)c7)n6)CC5)CC4)CC3)cc21 (centres unmarked) [Compound 289, 3-(6-(1-(2-(4-(4-((5-chloro-4-(4′-fluoro-[1,1′-biphenyl]-3-yl)pyrimidin-2-yl)amino)piperidine-1-carbonyl)-4-hydroxypiperidin-1-yl)acetyl)piperidin-4-yl)-1-methyl-1H-indazol-3-yl)piperidine-2,6-dione]
14 | < 500 | Cn1nc(C2CCC(=O)NC2=O)c2ccc(C3CCN(CC(=O)N4CCC(O)(C(=O)N5CCC(Nc6ncc(Cl)c(-c7cccc(-c8ccc(F)cc8)c7)n6)CC5)CC4)CC3)cc21 (centres unmarked) [Compound 290, 3-(6-(1-(2-(4-(4-((5-chloro-4-(4′-fluoro-[1,1′-biphenyl]-3-yl)pyrimidin-2-yl)amino)piperidine-1-carbonyl)-4-hydroxypiperidin-1-yl)-2-oxoethyl)piperidin-4-yl)-1-methyl-1H-indazol-3-yl)piperidine-2,6-dione]
15 | < 500 | O=C1CCC(n2c(=O)oc3c(C4CCN(C(=O)CN5CCC(C(=O)N6CCC(Nc7ncc(Cl)c(-c8cccc(-c9ccc(F)cc9)c8)n7)CC6)CC5)CC4)cccc32)C(=O)N1 (centres unmarked) [Compound 293, 3-(7-(1-(2-(4-(4-((5-chloro-4-(4′-fluoro-[1,1′-biphenyl]-3-yl)pyrimidin-2-yl)amino)piperidine-1-carbonyl)piperidin-1-yl)acetyl)piperidin-4-yl)-2-oxobenzo[d]oxazol-3 (2H)-yl)piperidine-2,6-dione]
16 | < 500 | O=C1CCC(n2c(=O)oc3cc(C4CCN(CC5CCN(CC(=O)N6CCC(Nc7ncc(Cl)c(-c8cccc(-c9ccc(F)cc9)c8)n7)CC6)CC5)CC4)ccc32)C(=O)N1 (centres unmarked) [Compound 294, 3-(6-(1-((1-(2-(4-((5-chloro-4-(4′-fluoro-[1,1′-biphenyl]-3-yl)pyrimidin-2-yl)amino)piperidin-1-yl)-2-oxoethyl)piperidin-4-yl)methyl)piperidin-4-yl)-2-oxobenzo[d]oxazol-3 (2H)-yl)piperidine-2,6-dione]
17 | < 500 | O=C1CCC(N2Cc3c(OC4CCN(C5CCCN(CC(=O)N6CCC(Nc7ncc(Cl)c(-c8cccc(-c9ccc(F)cc9)c8)n7)CC6)C5)CC4)cccc3C2=O)C(=O)N1 (centres unmarked) [Compound 296, 3-(4-((1′-(2-(4-((5-chloro-4-(4′-fluoro-[1,1′-biphenyl]-3-yl)pyrimidin-2-yl)amino)piperidin-1-yl)-2-oxoethyl)-[1,3′-bipiperidin]-4-yl)oxy)-1-oxoisoindolin-2-yl)piperidine-2,6-dione]
